Experiment [1] addresses T1, M. tuberculosis topoisomerase I (MtbTopI) (Mycobacterium tuberculosis, UniProt P9WG49).
T1 construct: made in house
As to the kind of experiment: MtbTopI relaxation inhibition assay. The experiment is classed as biochemical. Particulars: 12.5 nM enzyme, supercoiled pBAD/Thio plasmid, 37 °C 30 min, agarose gel.

For experiment [2], the target named is T2, human topoisomerase I (hTOPI) (Homo sapiens, UniProt P11387).
T2 construct: purchased TopoGen
T2 sequence (P11387 1-765): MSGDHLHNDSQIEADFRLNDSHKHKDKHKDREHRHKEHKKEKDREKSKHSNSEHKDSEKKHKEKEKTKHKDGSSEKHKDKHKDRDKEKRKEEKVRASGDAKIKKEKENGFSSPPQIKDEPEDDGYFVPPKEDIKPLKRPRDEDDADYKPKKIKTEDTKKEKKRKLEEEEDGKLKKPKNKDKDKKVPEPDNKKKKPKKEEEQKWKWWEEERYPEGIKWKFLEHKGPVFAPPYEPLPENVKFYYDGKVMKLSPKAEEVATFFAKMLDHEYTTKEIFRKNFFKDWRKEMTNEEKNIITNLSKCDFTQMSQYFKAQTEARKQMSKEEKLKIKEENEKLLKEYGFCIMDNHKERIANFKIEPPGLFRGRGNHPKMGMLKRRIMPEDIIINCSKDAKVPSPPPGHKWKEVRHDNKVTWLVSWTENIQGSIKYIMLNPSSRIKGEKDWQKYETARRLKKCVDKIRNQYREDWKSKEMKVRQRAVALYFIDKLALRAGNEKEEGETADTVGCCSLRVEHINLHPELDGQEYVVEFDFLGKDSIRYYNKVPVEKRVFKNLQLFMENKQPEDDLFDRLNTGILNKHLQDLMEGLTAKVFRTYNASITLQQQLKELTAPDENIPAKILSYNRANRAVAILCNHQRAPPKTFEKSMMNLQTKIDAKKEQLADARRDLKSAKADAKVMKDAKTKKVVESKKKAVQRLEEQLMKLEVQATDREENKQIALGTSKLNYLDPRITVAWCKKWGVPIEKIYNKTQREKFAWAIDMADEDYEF
The experiment in a line: Human topoisomerase I relaxation inhibition assay. Particulars: for IC50: 0.5 U enzyme, supercoiled plasmid, 37 °C 30 min; for Selectivity Score: hTOPI IC50/MtbTopI IC50. The experiment is classed as biochemical. The method, then: Human topoisomerase I assays were carried out in a buffer containing 10 mM Tris-HCl, pH 8.0, 150 mM NaCl, 0.1% BSA, 0.1 mM spermidine, and 5% glycerol. The enzyme (from TopoGen) was diluted in the above buffer and aliquoted into 10 µL samples such that 0.5U was present in each. 0.5 µL of compound at various concentrations was added before the addition of 150 ng of purified pBAD/Thio purified plasmid DNA for a final volume of 20 µL. The samples were incubated for 30 minutes at 37 °C before stopping by the addition of 4 µL of buffer containing 5% SDS, 0.25% bromophenol blue, and 25% glycerol. The samples were analyzed by gel electrophoresis as previously described[23],[38],[39]. The experiments were replicated twice.

The subject of experiment [3] is M. smegmatis transformed with cloning vector (MnoI strain). As to the kind of experiment: microbe, parasite or virus in culture. The experiment is classed as cell-based, Mycobacterium smegmatis. Conditions: Mycolicibacterium smegmatis.
The target in a further experiment is T3, E. coli DNA gyrase (Escherichia coli, UniProt P0AES4+P0AES6).
T3 construct: purchased New England BioLabs
As to the kind of experiment: DNA gyrase supercoiling inhibition assay. Particulars: for IC50: 2 U enzyme, relaxed plasmid, 37 °C 30 min. The class given is biochemical. The method, then: E. coli DNA gyrase was obtained from New England BioLabs. Two units of the enzyme were added to a reaction buffer provided by the manufacturer (35 mM Tris-HCl, pH 8.0, 4 mM MgCl2, 24 mM KCl, 2 mM DTT, 1.75 mM ATP, 5 mM spermidine, 0.1 mg/mL BSA, and 6.5% glycerol). 0.5 µL of the compounds dissolved in DMSO or the solvent alone were added to the enzyme mixture. 300 ng of relaxed covalently closed plasmid DNA was then added for a final volume of 20 µL. The reactions were incubated for 30 minutes at 37 °C before termination by the addition of 4 µL of the SDS stop buffer. The samples were then loaded into a 1% agarose gel and run at 25 V overnight. The experiments were replicated twice.

A further experiment addresses E. coli topoisomerase I (Escherichia coli, UniProt P06612). The experiment in a line: E. coli topoisomerase I relaxation inhibition assay. The experiment is classed as biochemical. Conditions: for Inhibition of E. coli topoisomerase I relaxation activity (in words): Supplementary Fig. S2.
In the next experiment the target is T4, human topoisomerase I (Homo sapiens, UniProt P11387).
T4 construct: purchased TopoGen
T4 sequence (P11387 1-765): T2 sequence (P11387 1-765)
As to the kind of experiment: Gel electrophoresis with ethidium bromide of human topoisomerase I reaction products (nicked DNA). Particulars: gel electrophoresis in the presence of ethidium bromide. The experiment is classed as biochemical.

The mark [4] stands for this setting: 48 h, read-out: MnoI Growth Inhibition (MIC).
[5] abbreviates: read-out: MnoI Growth Inhibition with TZ (MIC).

In brackets after ≈: the same amount, converted by molar mass. Entries after “also recorded” stand apart in the source; their conditions may differ. Read-outs that look alike come from different tables or passages of the source.

The IC50 is the concentration needed to halve the response being measured.

Sequence of E. coli topoisomerase I (P06612 whole entry): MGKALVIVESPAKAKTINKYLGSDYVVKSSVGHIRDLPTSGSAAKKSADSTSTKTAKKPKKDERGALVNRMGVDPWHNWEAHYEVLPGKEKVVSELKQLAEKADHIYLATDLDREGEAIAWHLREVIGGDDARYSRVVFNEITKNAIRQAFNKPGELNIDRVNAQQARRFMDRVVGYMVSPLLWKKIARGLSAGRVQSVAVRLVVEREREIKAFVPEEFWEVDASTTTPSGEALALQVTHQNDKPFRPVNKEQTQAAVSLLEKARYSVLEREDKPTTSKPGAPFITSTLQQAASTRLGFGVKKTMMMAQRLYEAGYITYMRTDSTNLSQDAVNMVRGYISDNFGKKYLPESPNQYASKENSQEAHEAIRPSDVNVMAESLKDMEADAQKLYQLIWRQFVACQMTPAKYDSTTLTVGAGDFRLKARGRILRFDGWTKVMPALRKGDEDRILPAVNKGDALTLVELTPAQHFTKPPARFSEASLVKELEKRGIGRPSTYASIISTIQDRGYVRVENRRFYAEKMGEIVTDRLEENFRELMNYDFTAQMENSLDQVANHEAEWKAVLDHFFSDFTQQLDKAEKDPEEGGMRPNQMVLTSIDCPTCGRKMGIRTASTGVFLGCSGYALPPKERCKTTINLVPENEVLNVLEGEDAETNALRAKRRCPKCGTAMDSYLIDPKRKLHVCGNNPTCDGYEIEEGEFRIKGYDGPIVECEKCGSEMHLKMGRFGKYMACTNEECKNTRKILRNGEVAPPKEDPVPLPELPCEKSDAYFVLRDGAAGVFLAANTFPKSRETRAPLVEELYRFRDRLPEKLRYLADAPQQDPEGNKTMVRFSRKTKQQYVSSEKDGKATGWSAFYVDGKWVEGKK
T1 sequence (P9WG49 whole entry): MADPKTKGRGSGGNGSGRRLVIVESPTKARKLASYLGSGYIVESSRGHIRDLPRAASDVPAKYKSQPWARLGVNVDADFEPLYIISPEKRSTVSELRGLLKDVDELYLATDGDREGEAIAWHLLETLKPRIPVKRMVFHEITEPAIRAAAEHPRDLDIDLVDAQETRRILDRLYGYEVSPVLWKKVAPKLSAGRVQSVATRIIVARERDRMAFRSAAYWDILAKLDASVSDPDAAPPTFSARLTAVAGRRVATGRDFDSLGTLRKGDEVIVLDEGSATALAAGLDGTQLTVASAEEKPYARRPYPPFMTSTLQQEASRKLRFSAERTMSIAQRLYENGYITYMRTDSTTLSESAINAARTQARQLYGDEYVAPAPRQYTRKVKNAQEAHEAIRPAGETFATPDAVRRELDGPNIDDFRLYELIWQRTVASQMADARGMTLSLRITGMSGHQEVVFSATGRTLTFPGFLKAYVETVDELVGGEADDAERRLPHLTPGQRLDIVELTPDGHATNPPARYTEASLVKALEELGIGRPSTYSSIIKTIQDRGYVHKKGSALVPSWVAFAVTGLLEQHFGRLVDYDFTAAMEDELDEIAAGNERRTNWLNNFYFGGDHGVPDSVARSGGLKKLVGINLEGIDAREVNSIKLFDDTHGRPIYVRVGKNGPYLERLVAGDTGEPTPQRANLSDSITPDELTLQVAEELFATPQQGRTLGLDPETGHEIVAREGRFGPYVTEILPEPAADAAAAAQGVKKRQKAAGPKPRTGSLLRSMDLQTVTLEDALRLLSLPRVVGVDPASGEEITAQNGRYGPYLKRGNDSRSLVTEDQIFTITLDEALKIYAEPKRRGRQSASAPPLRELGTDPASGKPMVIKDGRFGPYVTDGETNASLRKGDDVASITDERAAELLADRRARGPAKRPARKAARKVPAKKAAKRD
T3 sequence (P0AES4 whole entry, one chain of several): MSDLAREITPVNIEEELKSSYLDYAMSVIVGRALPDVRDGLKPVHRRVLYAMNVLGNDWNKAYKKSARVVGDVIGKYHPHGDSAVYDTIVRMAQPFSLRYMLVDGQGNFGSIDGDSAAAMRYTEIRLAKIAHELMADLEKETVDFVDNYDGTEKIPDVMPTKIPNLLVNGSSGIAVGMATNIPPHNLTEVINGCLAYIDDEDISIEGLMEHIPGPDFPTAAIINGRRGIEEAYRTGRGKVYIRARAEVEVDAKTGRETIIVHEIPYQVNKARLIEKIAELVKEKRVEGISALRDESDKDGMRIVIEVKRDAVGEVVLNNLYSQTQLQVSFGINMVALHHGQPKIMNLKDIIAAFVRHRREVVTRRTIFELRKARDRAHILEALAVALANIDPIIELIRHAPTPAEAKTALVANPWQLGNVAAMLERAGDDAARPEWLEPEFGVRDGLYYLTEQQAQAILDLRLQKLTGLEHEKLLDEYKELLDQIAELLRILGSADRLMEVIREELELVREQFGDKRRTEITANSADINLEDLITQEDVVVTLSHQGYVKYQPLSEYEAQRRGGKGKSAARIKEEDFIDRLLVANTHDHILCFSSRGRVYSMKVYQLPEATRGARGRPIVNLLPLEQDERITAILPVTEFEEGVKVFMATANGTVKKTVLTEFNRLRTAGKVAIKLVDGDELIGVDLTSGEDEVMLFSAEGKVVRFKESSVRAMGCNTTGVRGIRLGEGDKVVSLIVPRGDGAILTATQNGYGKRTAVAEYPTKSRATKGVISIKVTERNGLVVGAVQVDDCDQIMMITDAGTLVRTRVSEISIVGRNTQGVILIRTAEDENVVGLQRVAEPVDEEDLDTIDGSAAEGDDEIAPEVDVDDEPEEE

As for `Cc1c(C(=O)N2CCC(c3nnc(-c4nccc5ccccc45)o3)CC2)oc2ccccc12` [Compound 2], the 50% inhibitory concentration (IC50) in experiment [1] was 62.5 µM; in experiment [2], over 250 µM. The “Selectivity Score” value in experiment [2] is over 4. In addition, the MIC in experiment [3] (setting [4]) was found to be 188 µM (≈ 82.2 µg/mL); in experiment [3] (setting [5]), 31.3 µM (≈ 13.7 µg/mL).

With `COc1ccc2c(c1)NC1(CCN(C(=O)Cc3c[nH]c4ccccc34)CC1)NS2(=O)=O` [Compound 3], the values for the 50% inhibitory concentration (IC50) in experiment [1] and in experiment [2] were 62.5 µM and over 250 µM, respectively. Also, the “Selectivity Score” value in experiment [2] is given as over 4. Besides, the MIC in experiment [3] (setting [4]) stood at 250 µM (≈ 110 µg/mL); in experiment [3] (setting [5]), 31.3 µM (≈ 13.8 µg/mL).

For the molecule `Cc1c(C(=O)N2CCC3(CC2)CC(O)(c2ccc(F)cc2)CO3)oc2ccccc12` (centres unmarked) [Compound 4], the values for the IC50 in experiment [1] and in experiment [2] were 125 µM and over 250 µM, respectively. For the same molecule, in experiment [2], the “Selectivity Score” value is recorded as over 2.

In the case of `O=C(c1ccc2c(c1)OCO2)N1CCC(Cn2nc(-c3ccc(F)cc3)ccc2=O)CC1` [Compound 5], in experiment [1], the 50% inhibitory concentration (IC50) worked out at 250 µM.

With `O=C(CN1C(=O)C2C3CCC(C3)C2C1=O)N1CCC2(CC1)Nc1ccccc1-n1cccc12` (centres unmarked) [Compound 6], in experiment [1], the IC50 amounted to 500 µM. This IC50 is about 2-fold higher than that of the molecule before.

On to `Cc1ccc(CN2C[C@]34C=C[C@H](O3)C(C(=O)N3CCn5cccc5C3)C4C2=O)cc1C` (some centres unmarked) [Compound 7], for which the IC50 in experiment [1] is 2 µM; in experiment [2], over 500 µM; against E. coli topoisomerase I (assay conditions as for MtbTopI), 15.6 to 31.3 µM. For the same molecule, the “Inhibition of E. coli DNA gyrase supercoiling activity (in words)” value at E. coli DNA gyrase (up to 500 µM) was “no inhibition; also recorded: does not inhibit”. Besides, the “Inhibition of E. coli topoisomerase I relaxation activity (in words)” value on E. coli topoisomerase I is reported as “inhibited”. In addition, the MIC was over 500 µM in experiment [3] (setting [4]) and 500 µM (≈ 209 µg/mL) in experiment [3] (setting [5]).

Take `Cc1cc2oc(C(=O)N3CCC(c4nc5ccccc5[nH]4)CC3)c(C)c2cc1C` [Compound 8]: the IC50 in experiment [1] was 62.5 µM; in experiment [2] it was over 500 µM; at E. coli DNA gyrase, over 500 µM. Moreover, at E. coli topoisomerase I, the “Inhibition of E. coli topoisomerase I relaxation activity (in words)” value was “inhibited”. The MIC in experiment [3] (setting [4]) is over 500 µM; in experiment [3] (setting [5]) it was 23.4 µM (≈ 9.07 µg/mL).

Regarding `Cc1ccc2[nH]c(C3CCN(C(=O)c4oc5ccc(C)cc5c4C)CC3)nc2c1` [Compound 9], the IC50 in experiment [1] is 62.5 µM; in experiment [2], over 500 µM; against E. coli DNA gyrase, over 500 µM. Besides, the “Inhibition of E. coli topoisomerase I relaxation activity (in words)” value at E. coli topoisomerase I was “inhibited”. Besides, the MIC in experiment [3] (setting [4]) is 125 µM (≈ 48.4 µg/mL); in experiment [3] (setting [5]) it was 23.4 µM (≈ 9.07 µg/mL).

Consider `Cc1ccc2oc(C(=O)N3CCC(O)(c4cccc(C(F)(F)F)c4)CC3)c(C)c2c1` [Compound 10], for which the IC50 in experiment [1] is 62.5 µM; in experiment [2], over 500 µM; against E. coli DNA gyrase, over 500 µM. Besides, the MIC in experiment [3] (setting [4]) came out at 125 µM (≈ 52.2 µg/mL); in experiment [3] (setting [5]), 23.4 µM (≈ 9.77 µg/mL).

As for `Cc1c(C(=O)N2CCCCC2CCc2ccc(O)cc2)oc2c(F)cccc12` (centres unmarked) [Compound 11], the half-maximal inhibitory concentration (IC50) in experiment [1] is 62.5 µM; in experiment [2], 250 µM; against E. coli DNA gyrase, over 500 µM. In addition, the MIC in experiment [3] (setting [4]) turned out to be 500 µM (≈ 191 µg/mL); in experiment [3] (setting [5]), 46.9 µM (≈ 17.9 µg/mL).

As for `Cc1ccc2c(C)c(C(=O)N3CCC4(CC(=O)c5ccccc5O4)C3)oc2c1` (centres unmarked) [Compound 12], the IC50 was 62.5 µM in experiment [1], over 500 µM in experiment [2] and over 500 µM at E. coli DNA gyrase. Moreover, the MIC in experiment [3] (setting [4]) is over 500 µM; in experiment [3] (setting [5]), 500 µM (≈ 188 µg/mL).

`CC[C@@]1(O)C(=O)OCc2c1cc1n(c2=O)Cc2cc3ccccc3nc2-1` [camptothecin]: the “Formation of nicked DNA by human topoisomerase I” value on human topoisomerase I is on record as “increased nicking of DNA by human topoisomerase I significantly”.

(Values after publication PMC5780498, “Discovery of novel bacterial topoisomerase I inhibitors by use of in silico docking and in vitro assays” (Scientific Reports, 2018).)
